Laboratory results: patent US10207988B2, “Methods and compositions for treatment of cancer and autoimmune disease” (THE JACKSON LABORATORY, priority 2011, dated 2019)

Key:
[1] = test system: primary mouse B-cells from AID knockout mice (AID−/−); assay: viable cell counts (Trypan blue) of primary B-cells cultured with DIDS; assay type: cell-based; conditions: 0-150 μM DIDS
Description: (§1) Primary mouse B-cells were isolated from spleens of adult C57BL/6J mice (AID+/+) and from AID knockout mice (AID−/−) (see Example 1 and 2). 1×10^^6 primary B-cells were seeded into tissue culture plates, stimulated with 1 μg/ml anti-CD40 antibodies (anti-CD40; BD Pharmingen; Cat. No. 553721) and 25 ng/ml IL-4 or with anti-CD40 alone on day 0 and day 2. 0, 50 μM, 100 μM or 150 μM of DIDS was added at time 0 and 2 days after culture initiation, when culture volumes were adjusted to accommodate cell growth. The cells were cultured over 6 days. The number of viable cells were counted after staining with Trypan blue using a hemacytometer on days 1, 2, 3, 4 and 6. In FIG. 7 the number of viable primary B-cells from C57BL/6J mice (AID+/+) and AID-knockout mice (AID−/−) after treatment with DIDS is shown.

[2] = test system: primary mouse B-cells from C57BL/6J mice (AID+/+); assay: as above; assay type: cell-based
Description: as §1

[3] = test system: AID+/+ (C57BL/6) or AID−/− mice; assay: systemic DIDS treatment of DNP-KLH immunized mice; assay type: in vivo
Description: To test the in vivo effectiveness of DIDS, either AID+/+ (C57BL/6) or AID−/− mice (Muramatsu et al. et al., 2000 supra) were administered DIDS (10 mg/kg or 50 mg/kg) at weekly intervals, immunized at weeks 1 with dinitrophenol conjugated Keyhole limpet hemocyanin (DNP-KLH) in complete Freund's adjuvant (CFA) to stimulate lymphocyte activation, and boosted after 4 weeks with DNP-KLH (in incomplete Freund's adjuvant, IFA). After a total of 7 weeks (FIG. 25A) mice were euthanized. The group size was n=5. […] For this the mice were weighed weekly and the data represent the average fractional change in body mass for five animals, and error bars denote S.E.M.
After the 7-week trial window, tissues from treated and control animals were fixed, sectioned, and analyzed after hematoxylin and eosin (H&E) staining. […] To determine whether DIDS induced a B-cell specific phenotype related to AID, bone marrow, spleen, and peripheral blood, from DIDS-treated AID+/+ versus AID−/− mice, were analyzed for the presence of B220+CD19+ B-cells, by flow cytometry (FIG. 26). […] In FIG. 26 the endpoint flow cytometry dot plot analysis of bone marrow, spleen, and peripheral blood from AID−/− and AID+/+ mice immunized with DNP-KLH and treated with 0, 10, or 50 mg/kg DIDS is shown. Plots represent the population of cells in the lymphocyte gate stained for expression of B220 (y-axis) and CD19 (x-axis). The numbers in the upper right corner of each plot provide the percentage of B220+/CD19+ cells for each analysis. The progression of B-cell maturation from early/pre-GC to post-GC is indicated below.

[4] = test system: phosphor-H2AX foci in AID+ and AID− primary human CLL cells; assay: phospho-H2AX foci in primary human CLL cells treated with DIDS; assay type: cell-based; conditions: 30 μM DIDS, 2 days in culture, AID+ versus AID− samples
Excerpt: Primary human CLL patient derived cells were obtained from peripheral bleeds collected at the time of routine clinical monitoring. Primary peripheral blood samples were collected via routine venipuncture into BD Vacutainer CPT Cell Separation Tubes (Becton Dickinson). Samples were centrifuged to separate red blood cells (RBC) and then inverted to resuspend the monocuclear cells in their own plasma. Samples were stored overnight at the site of collection at room temperature then shipped via courier to the site of analysis. Each sample was tested for AID expression status by reverse transcription PCR (RT-PCR) to detect presence of the human AID mRNA (see Example 11). Samples were then divided into AID+ (those showing detectable levels of AID mRNA) and AID− (those showing no detectable AID mRNA above background) groups. Multiple independent cultures from different AID+ and AID− samples were initiated in standard RPMI-1640 medium containing 10% FBS plus either 0 or 30 μM DIDS. After 2 days in culture, cells from each culture/condition were fixed using paraformaldehyde, mounted on microscope coverslips, permeabilized by washing with weak detergent, and were processed for immunofluorescent detection of the DNA double strand break marker phosphor-H2AX (primary antibody: cat. No. A300-081A, Bethyl Laboratories; 1:400 dilution). […]

[5] = test system: mouse B-lymphoid leukemia cell line CH12-F3; assay: total cell counts of CH12-F3 cells cultured with DIDS; assay type: cell-based
Description: The mouse B-lymphoid leukemia cell line CH12-F3 was cultured in RPMI-1640 medium supplemented with 2-10 mM L-glutamine (Gibco), 10% (vol/vol) heat-inactivated fetal bovine serum (Omega Scientific) and 5% (vol/vol) NCTC 109 media (Gibco) (complete RPMI; non-activated) or complete RPMI-1640 medium containing 1 μg/ml anti-CD40 antibody, 25 ng/ml IL-4 and 1 ng/ml transforming growth factor beta 1 (TGF-beta1) (activated). Cultures were supplemented with 0, 50, 100, or 150 micromolar DIDS, and total cell counts were determined by manual cytometry after 0, 1, 2, 3, 4, or 6 days in culture.

With `O=S(=O)([O-])c1cc(N=C=S)ccc1/C=C/c1ccc(N=C=S)cc1S(=O)(=O)[O-].[Na+].[Na+]` [DIDS, 4,4′diisothiocyanostilbene-2,2′-disulfonic acid] the “number of viable cells” value [1] was “no significant change in cell viability”, the “number of viable cells” value ([2]; 100 μM DIDS, stimulated with anti-CD40 + IL-4) was “decrease of B-cell viability” and the “number of viable cells” value ([2]; 150 μM DIDS, stimulated with anti-CD40 + IL-4, days 1-6) was “greatly reduces the cell viability from day 3 on”. For the same compound, the “number of viable cells” value ([2]; not stimulated with anti-CD40+IL-4) was “does not influence the cell viability”, the “weight gain (fractional change in body mass)” value ([3]; 0 mg/kg control and 50 mg/kg cohorts, after 5 weeks) was “independent of DIDS exposure” and the “overt signs of toxicity” value ([3]; 10 mg/kg or 50 mg/kg DIDS at weekly intervals, 7 weeks) was “No animals in either the control or DIDS-treated groups showed overt signs of toxicity”. For the same compound, the “overt non-B-cell toxicity” value ([3]; AID+/+ or AID−/− cohort) was “none of the DIDS treated animals”, the “percentages of splenic B-cells (flow cytometry)” value ([3]; AID+/+ or AID−/− mice) was “no consistent differences” and the “toxicity / splenic physiology” value ([3]; at least up to 50 mg/kg, AID+/+ or AID−/− mice) was “does not induce significant toxicity or general defects in splenic physiology”. The “reduction in circulating B-lymphoid cells (flow cytometry)” value ([3]; both 10 mg/kg and 50 mg/kg DIDS, AID+/+ mice) was 9-11 fold, the “reduction in B220+CD19+ B-cells in the bone marrow (flow cytometry)” value ([3]; both 10 mg/kg and 50 mg/kg treated AID+/+ mice) was 25% and the “spleen sections, H&E staining” value ([3]; untreated versus DIDS-treated animals, after 7 weeks) was “no gross anatomical defects or differences in germinal center (GC) architecture”. The “phosphor-H2AX foci per cell (DNA double strand break marker)” value [4] was “inhibits repair of AID-mediated genomic DNA double strand breaks (DSBs)”, the total cell number ([5]; activated cells (anti-CD40, IL-4, TGF-beta1), 150 micromolar DIDS) was “strong decrease of total cell number” and the total cell number ([5]; non-activated cells, 0-150 micromolar DIDS) was “no difference in cell viability or cell proliferation”.
